Measured values reported in US11767341B2, “Lincosamide antibiotics and uses thereof” (President and Fellows of Harvard College, priority 2017, dated 2023).
In brackets after ≈: the same amount, converted by molar mass.

System: S. pneumoniae MMX 3028 cErmB
Experiment: MIC determination
Format: cell-based
Settings: Streptococcus pneumoniae, MMX3028CERMB

| SMILES | MIC [µg/mL] |
| --- | --- |
| Cc1ccc(S(=O)(=O)OCC2O[C@H]([C@H](NC(=O)[C@H]3NC[C@@H]4CC=CCO[C@H]43)[C@@H](C)O)C(O)[C@@H](O)[C@H]2O)cc1 (some centres unmarked) [FSA-211030] | > 64 |

System: P. aeruginosa MMX Mex parent strain
Experiment: MIC determination
Format: cell-based
Settings: Pseudomonas aeruginosa

| SMILES | MIC [µg/mL] |
| --- | --- |
| Cc1ccc(S(=O)(=O)OCC2O[C@H]([C@H](NC(=O)[C@H]3NC[C@@H]4CC=CCO[C@H]43)[C@@H](C)O)C(O)[C@@H](O)[C@H]2O)cc1 (some centres unmarked) [FSA-211030] | > 64 |

System: S. pneumoniae ATCC 49619
Experiment: MIC determination
Format: cell-based
Settings: Streptococcus pneumoniae, ATCC49619; S. pneumoniae ATCC 49619; read-out: MIC

| SMILES | MIC [µg/mL] |
| --- | --- |
| Cc1ccc(S(=O)(=O)OCC2O[C@H]([C@H](NC(=O)[C@H]3NC[C@@H]4CC=CCO[C@H]43)[C@@H](C)O)C(O)[C@@H](O)[C@H]2O)cc1 (some centres unmarked) [FSA-211030] | 32 (≈ 57.5 µM) |

System: P. aeruginosa ATCC 27853
Experiment: MIC determination
Format: cell-based
Settings: Pseudomonas aeruginosa, ATCC27853

| SMILES | MIC [µg/mL] |
| --- | --- |
| Cc1ccc(S(=O)(=O)OCC2O[C@H]([C@H](NC(=O)[C@H]3NC[C@@H]4CC=CCO[C@H]43)[C@@H](C)O)C(O)[C@@H](O)[C@H]2O)cc1 (some centres unmarked) [FSA-211030] | > 64 |

System: S. pyogenes MMX 946 Macrolide-Resistant
Experiment: MIC determination
Format: cell-based
Settings: Streptococcus pyogenes

| SMILES | MIC [µg/mL] |
| --- | --- |
| Cc1ccc(S(=O)(=O)OCC2O[C@H]([C@H](NC(=O)[C@H]3NC[C@@H]4CC=CCO[C@H]43)[C@@H](C)O)C(O)[C@@H](O)[C@H]2O)cc1 (some centres unmarked) [FSA-211030] | > 64 |

System: E. coli MMX 0121 ΔTolC
Experiment: MIC determination
Format: cell-based
Settings: Escherichia coli

| SMILES | MIC [µg/mL] |
| --- | --- |
| Cc1ccc(S(=O)(=O)OCC2O[C@H]([C@H](NC(=O)[C@H]3NC[C@@H]4CC=CCO[C@H]43)[C@@H](C)O)C(O)[C@@H](O)[C@H]2O)cc1 (some centres unmarked) [FSA-211030] | > 64 |

System: E. coli MMX TolC parent strain
Experiment: MIC determination
Format: cell-based
Settings: Escherichia coli

| SMILES | MIC [µg/mL] |
| --- | --- |
| Cc1ccc(S(=O)(=O)OCC2O[C@H]([C@H](NC(=O)[C@H]3NC[C@@H]4CC=CCO[C@H]43)[C@@H](C)O)C(O)[C@@H](O)[C@H]2O)cc1 (some centres unmarked) [FSA-211030] | > 64 |

System: S. aureus BAA 977 iErmA
Experiment: MIC determination
Format: cell-based
Settings: Staphylococcus aureus, BAA977

| SMILES | MIC [µg/mL] |
| --- | --- |
| Cc1ccc(S(=O)(=O)OCC2O[C@H]([C@H](NC(=O)[C@H]3NC[C@@H]4CC=CCO[C@H]43)[C@@H](C)O)C(O)[C@@H](O)[C@H]2O)cc1 (some centres unmarked) [FSA-211030] | > 64 |

System: S. aureus ATCC 29213
Experiment: MIC determination
Format: cell-based
Settings: Staphylococcus aureus, ATCC29213

| SMILES | MIC [µg/mL] |
| --- | --- |
| Cc1ccc(S(=O)(=O)OCC2O[C@H]([C@H](NC(=O)[C@H]3NC[C@@H]4CC=CCO[C@H]43)[C@@H](C)O)C(O)[C@@H](O)[C@H]2O)cc1 (some centres unmarked) [FSA-211030] | > 64 |

System: S. aureus MMX 3035 cErmA
Experiment: MIC determination
Format: cell-based
Settings: Staphylococcus aureus, MMX3035CERMA

| SMILES | MIC [µg/mL] |
| --- | --- |
| Cc1ccc(S(=O)(=O)OCC2O[C@H]([C@H](NC(=O)[C@H]3NC[C@@H]4CC=CCO[C@H]43)[C@@H](C)O)C(O)[C@@H](O)[C@H]2O)cc1 (some centres unmarked) [FSA-211030] | > 64 |

System: H. influenzae ATCC 49247
Experiment: MIC determination
Format: cell-based
Settings: Haemophilus influenzae, ATCC49247

| SMILES | MIC [µg/mL] |
| --- | --- |
| Cc1ccc(S(=O)(=O)OCC2O[C@H]([C@H](NC(=O)[C@H]3NC[C@@H]4CC=CCO[C@H]43)[C@@H](C)O)C(O)[C@@H](O)[C@H]2O)cc1 (some centres unmarked) [FSA-211030] | > 64 |

System: S. pyogenes ATCC 19615
Experiment: MIC determination
Format: cell-based
Settings: Streptococcus pyogenes, ATCC19615; S. pyogenes ATCC 19615; read-out: MIC

| SMILES | MIC [µg/mL] |
| --- | --- |
| Cc1ccc(S(=O)(=O)OCC2O[C@H]([C@H](NC(=O)[C@H]3NC[C@@H]4CC=CCO[C@H]43)[C@@H](C)O)C(O)[C@@H](O)[C@H]2O)cc1 (some centres unmarked) [FSA-211030] | 1 (≈ 1.8 µM) |

System: E. faecalis ATCC 29212
Experiment: MIC determination
Format: cell-based
Settings: Enterococcus faecalis, ATCC29212

| SMILES | MIC [µg/mL] |
| --- | --- |
| Cc1ccc(S(=O)(=O)OCC2O[C@H]([C@H](NC(=O)[C@H]3NC[C@@H]4CC=CCO[C@H]43)[C@@H](C)O)C(O)[C@@H](O)[C@H]2O)cc1 (some centres unmarked) [FSA-211030] | > 64 |

System: E. faecalis MMX 847 Macrolide-Resistant
Experiment: MIC determination
Format: cell-based
Settings: Enterococcus faecalis

| SMILES | MIC [µg/mL] |
| --- | --- |
| Cc1ccc(S(=O)(=O)OCC2O[C@H]([C@H](NC(=O)[C@H]3NC[C@@H]4CC=CCO[C@H]43)[C@@H](C)O)C(O)[C@@H](O)[C@H]2O)cc1 (some centres unmarked) [FSA-211030] | > 64 |

System: E. coli ATCC 25922
Experiment: MIC determination
Format: cell-based
Settings: Escherichia coli, ATCC25922

| SMILES | MIC [µg/mL] |
| --- | --- |
| Cc1ccc(S(=O)(=O)OCC2O[C@H]([C@H](NC(=O)[C@H]3NC[C@@H]4CC=CCO[C@H]43)[C@@H](C)O)C(O)[C@@H](O)[C@H]2O)cc1 (some centres unmarked) [FSA-211030] | > 64 |

System: B. fragilis ATCC 25285
Experiment: MIC determination
Format: cell-based
Settings: Bacteroides fragilis, ATCC25285

| SMILES | MIC [µg/mL] |
| --- | --- |
| Cc1ccc(S(=O)(=O)OCC2O[C@H]([C@H](NC(=O)[C@H]3NC[C@@H]4CC=CCO[C@H]43)[C@@H](C)O)C(O)[C@@H](O)[C@H]2O)cc1 (some centres unmarked) [FSA-211030] | > 64 |

System: S. aureus Micromyx USA 300
Experiment: MIC determination
Format: cell-based
Settings: Staphylococcus aureus, USA300

| SMILES | MIC [µg/mL] |
| --- | --- |
| Cc1ccc(S(=O)(=O)OCC2O[C@H]([C@H](NC(=O)[C@H]3NC[C@@H]4CC=CCO[C@H]43)[C@@H](C)O)C(O)[C@@H](O)[C@H]2O)cc1 (some centres unmarked) [FSA-211030] | > 64 |

System: S. pneumoniae MMX 3031 cMefA
Experiment: MIC determination
Format: cell-based
Settings: Streptococcus pneumoniae, MMX3031CMEFA

| SMILES | MIC [µg/mL] |
| --- | --- |
| Cc1ccc(S(=O)(=O)OCC2O[C@H]([C@H](NC(=O)[C@H]3NC[C@@H]4CC=CCO[C@H]43)[C@@H](C)O)C(O)[C@@H](O)[C@H]2O)cc1 (some centres unmarked) [FSA-211030] | 32 (≈ 57.5 µM) |

System: P. aeruginosa MMX 3476 Δmex
Experiment: MIC determination
Format: cell-based
Settings: Pseudomonas aeruginosa

| SMILES | MIC [µg/mL] |
| --- | --- |
| Cc1ccc(S(=O)(=O)OCC2O[C@H]([C@H](NC(=O)[C@H]3NC[C@@H]4CC=CCO[C@H]43)[C@@H](C)O)C(O)[C@@H](O)[C@H]2O)cc1 (some centres unmarked) [FSA-211030] | > 64 |

System: C. difficile BAA 1805
Experiment: MIC determination
Format: cell-based
Settings: Clostridioides difficile, BAA1805

| SMILES | MIC [µg/mL] |
| --- | --- |
| Cc1ccc(S(=O)(=O)OCC2O[C@H]([C@H](NC(=O)[C@H]3NC[C@@H]4CC=CCO[C@H]43)[C@@H](C)O)C(O)[C@@H](O)[C@H]2O)cc1 (some centres unmarked) [FSA-211030] | > 64 |
